From paper PMC4933562, “Bile salt receptor complex activates a pathogenic type III secretion system” (eLife, 2016)

What was measured:
[1] = biological target: T1, VtrC (VPA1333) (Vibrio parahaemolyticus, UniProt Q87GI3+Q87GI4); assay: ITC (n = […]) and […] Å co-crystal structure; type: binding
T1 construct: periplasmic domains: VtrC aa 31–161 (N-terminal His-tagged) co-expressed with VtrA aa 161–253; with VtrA (VPA1332), periplasmic domain aa 161–253, obligate 1:1 heterodimer

[2] = biological target: N-terminal His-tagged VtrC periplasmic domain (aa 31-161) (Vibrio parahaemolyticus); assay: SEC

## C[C@H](CCC(=O)NCCS(=O)(=O)O)[C@H]1CC[C@H]2[C@@H]3CC[C@@H]4C[C@H](O)CC[C@]4(C)[C@H]3C[C@H](O)[C@]12C [TDC, taurodeoxycholate]
[1]
  Kd: 0.315 µM

## VtrA periplasmic domain (aa 161-253), co-expressed with VtrC (domain or fragment)
[2]
  stoichiometry N (VtrA per VtrC): 1
